One data set relates to P. aeruginosa. The data set can be described thus: MIC potentiation of antimicrobial agents by EPIs. It counts as cell-based, Pseudomonas aeruginosa. To be noted: 1/16 MIC. The procedure:
In contrast, the activities of gentamicin and imipenem were unchanged in the presence of TXA11114 under the conditions tested. Although gentamicin can be transported by the MexXY efflux system, the absence of potentiation in this assay is not sufficient to draw conclusions regarding MexXY inhibition or overall efflux specificity.
MIC assays for potentiation of antimicrobial activity against P. aeruginosa were performed as described previously.

For data set [1], the system named is P. aeruginosa ATCC 27853. The data set can be described thus: Ethidium bromide efflux inhibition. It counts as cell-based, Pseudomonas aeruginosa.
Description: In the first assay, the efflux of ethidium bromide (EtBr) by P. aeruginosa cells is studied in the presence of different concentrations of TXA11114.
In the next data set the test system is P. aeruginosa DA7232. The data set can be described thus: Levofloxacin accumulation assay. In kind it is cell-based, Pseudomonas aeruginosa. The following applies: vs vehicle-treated controls. The protocol:
The bacterial culture samples were treated on ice for 15 min, centrifuged, washed with PBSMG (1X PBS, 1 mM MgCl2, 100 mM glucose) and then resuspended in 1 mL of glycine-HCl buffer (pH 3.0) overnight for cell lysis, followed by centrifugation. The fluorescence of 100 µL of supernatant was read at 490 nm following a 355 nm excitation in a SpectraMax iD5 spectrophotometer (Molecular Devices, San Jose, CA, USA).

For a further data set, the system named is P. aeruginosa AR-0232. The data set can be described thus: Time-kill study. It counts as cell-based, Pseudomonas aeruginosa. To be noted: levofloxacin 1X-MIC + TXA11114, by 24 h. The protocol: (§1) Time-kill studies were carried out as described previously with the following changes.
Data set [2] relates to P. aeruginosa ATCC 27853. The data set can be described thus: Time-kill study. In kind it is cell-based, Pseudomonas aeruginosa. To be noted: levofloxacin 1X-MIC + TXA11114. The procedure:
as §1

A further data set can be described thus: Plasma stability. It counts as in vitro ADME, human. The procedure:
Plasma stability was assessed by incubating the compound in plasma at 37 °C and monitoring parent compound disappearance over time by LC-MS/MS. Half-life values were calculated assuming first-order kinetics.

A further data set can be described thus: Microsomal stability. The following applies: rat, liver microsomes, pH 7.4; read-out: Microsome Stability t1/2. In kind it is in vitro ADME. The procedure:
The metabolic stability of TXA11114 was evaluated in liver microsomes from human (HLM), dog (DLM), rat (RLM), and mouse (MLM). Test compound disappearance over time was monitored by LC-MS/MS. Verapamil (HLM and RLM) and imipramine (DLM and MLM) were used as positive controls. […] Aliquots (70 µL) were transferred to 96-well reaction plates and pre-incubated at 37 °C for 5 min. Reactions were initiated by adding 30 µL NADPH (final concentration 1 mM). Control incubations lacking NADPH were included to assess non-enzymatic degradation. Reactions were terminated at 0, 5, 15, 30, and 60 min by the addition of 100 µL ice-cold acetonitrile containing glipizide as an internal standard.
For orientation: Liver microsomes are a subcellular fraction often used to study metabolism.

A further data set has as its target T1, CYP2D6 (Homo sapiens, UniProt P10635).
T1 construct: from tissue; host or cells: human liver microsomes
The data set can be described thus: Cytochrome P450 inhibition. It counts as in vitro ADME. The following applies: human liver microsomes; read-out: CYP Inhibition IC50, 2D6. The protocol: (§2) Inhibition of CYP1A2, CYP2D6, CYP2C9, CYP2C19, and CYP3A4 by TXA11114 was assessed in human liver microsomes by measuring the inhibition of probe substrate metabolism. Phenacetin, bufuralol, diclofenac, S-mephenytoin, and midazolam were used as probe substrates for CYP1A2, CYP2D6, CYP2C9, CYP2C19, and CYP3A4, respectively. Corresponding metabolites (acetaminophen, OH-bufuralol, 4-OH diclofenac, 4-OH mephenytoin, and 1-OH midazolam) were quantified by LC-MS/MS. Selective inhibitors (fluvoxamine (CYP1A2), quinidine (CYP2D6), sulfaphenazole (CYP2C9), ticlopidine (CYP2C19), and ketoconazole (CYP3A4)) were used as positive controls. Test and control compounds, prepared in DMSO at various concentrations, were spiked into 2× microsomal reaction mixtures, and 50 µL aliquots were transferred to individual wells. Probe substrates (25 µL, 4× concentration) were added to the respective wells and pre-incubated for 5 min at 37 °C. Reactions were initiated by the addition of 25 µL NADPH (4×) and incubated for 5 min (CYP3A4), 10 min (CYP1A2, CYP2D6, CYP2C9), or 20 min (CYP2C19). Reactions were quenched with 100 µL ice-cold acetonitrile containing glipizide as an internal standard. Plates were centrifuged at 4000 rpm for 15 min, and 100 µL supernatants were analyzed by LC-MS/MS in MRM mode. […] Percent inhibition was calculated as 100 − percent activity. IC50 values were determined using GraphPad Prism (version 5.02).

For a further data set, the target named is T2, CYP3A4 (Homo sapiens, UniProt P08684).
T2 construct: from tissue; host or cells: human liver microsomes
T2 sequence (P08684 whole entry): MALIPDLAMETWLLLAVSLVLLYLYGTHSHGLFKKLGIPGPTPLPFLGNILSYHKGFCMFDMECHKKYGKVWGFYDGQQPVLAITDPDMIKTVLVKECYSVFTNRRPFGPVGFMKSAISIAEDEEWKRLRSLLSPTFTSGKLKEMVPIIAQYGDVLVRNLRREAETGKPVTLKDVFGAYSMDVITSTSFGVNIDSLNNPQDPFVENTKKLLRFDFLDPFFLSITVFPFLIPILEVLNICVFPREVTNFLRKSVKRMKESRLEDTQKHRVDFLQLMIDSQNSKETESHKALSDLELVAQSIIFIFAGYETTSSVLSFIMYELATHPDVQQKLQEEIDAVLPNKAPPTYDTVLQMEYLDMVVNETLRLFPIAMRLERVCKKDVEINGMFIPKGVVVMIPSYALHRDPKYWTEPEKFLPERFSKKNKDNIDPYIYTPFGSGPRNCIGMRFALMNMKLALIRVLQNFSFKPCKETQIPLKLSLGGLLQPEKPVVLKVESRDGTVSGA
The data set can be described thus: Cytochrome P450 inhibition. In kind it is in vitro ADME. The following applies: human liver microsomes; read-out: CYP Inhibition IC50, 3A4. The protocol: as §2

A short description of data set [3]: in vitro. It counts as cell-based. The following applies: human. The procedure: (§3) The cytotoxicity of TXA11114 was evaluated in HEK293T and A549 cell lines using the CellTiter-Glo™ assay (Promega, Madison, WI, USA). HEK293T cells (human embryonic kidney cells transformed with sheared adenovirus 5 DNA and expressing SV40 large T antigen) and A549 cells (human alveolar basal epithelial adenocarcinoma cell line; hypotriploid with a modal chromosome number of 66) were obtained from Sai Life Sciences Ltd. (Hyderabad, India). These cell lines are well-characterized and consistent with commonly used reference lines (e.g., A549, ATCC CCL-185).
(§4) TXA11114 was tested in a dose–response format with a top concentration of 20 µM using 2-fold serial dilutions in triplicate. Doxorubicin and staurosporine were included as reference controls. Cells (1200 cells/well in 27 µL complete medium) were seeded into 384-well plates and incubated overnight at 37 °C with 5% CO2. The following day, cells were treated with 3 µL of 10× serially diluted compounds. After a 24 h incubation, CellTiter-Glo reagent was added, and plates were gently shaken for 15–20 min at room temperature. Luminescence was measured using an EnVision multimode plate reader (PerkinElmer, Thane, India).

Data set [4] in a line: in vitro. It counts as cell-based. To be noted: human. The procedure:
as §3, §4
This is another data set of the same source.

Data set [5] in a line: Initial nephrotoxicity screen (BUN, creatinine). It counts as in vivo, Sprague Dawley rats. The following applies: male rats, 10 mg/kg IV QD, 24 h after dosing. The procedure: BUN and CRE analyses were conducted by SRI International (Menlo Park, CA, USA). Adult male Sprague Dawley rats (n = 3 per group) received TXA11114 (10 mg/kg, IV, QD), and blood samples were collected 24 h after dosing.

Structures are written as SMILES. Read-outs that look alike come from different tables or passages of the source.

T1 sequence (P10635 whole entry): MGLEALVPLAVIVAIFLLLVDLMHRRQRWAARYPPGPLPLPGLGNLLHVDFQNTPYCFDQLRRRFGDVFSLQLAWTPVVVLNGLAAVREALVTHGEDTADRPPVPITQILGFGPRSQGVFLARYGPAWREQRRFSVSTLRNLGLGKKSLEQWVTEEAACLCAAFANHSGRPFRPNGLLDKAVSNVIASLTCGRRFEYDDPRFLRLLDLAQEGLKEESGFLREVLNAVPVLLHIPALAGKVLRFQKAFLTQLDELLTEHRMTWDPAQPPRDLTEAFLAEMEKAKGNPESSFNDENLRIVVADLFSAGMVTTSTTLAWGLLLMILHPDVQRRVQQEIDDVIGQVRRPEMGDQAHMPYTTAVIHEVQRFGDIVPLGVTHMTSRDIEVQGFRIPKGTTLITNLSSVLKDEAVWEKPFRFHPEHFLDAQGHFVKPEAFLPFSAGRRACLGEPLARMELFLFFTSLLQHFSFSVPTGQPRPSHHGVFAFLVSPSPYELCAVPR

The term IC50 denotes the concentration needed to halve the response being measured. With `NCC(F)C[C@@H](N)CNC(=O)c1cc2ccc(-c3ccc(F)cc3)cc2[nH]1` (stereo partly drawn) [TXA11114, N-((2R)-2,5-diamino-4-fluoropentyl)-6-(4-fluorophenyl)-1H-indole-2-carboxamide], the “Lowest effective concentration for potentiation” value in the data set on P. aeruginosa amounted to 6.25 µg/mL. In addition, the “Minimal potentiation concentration (MPC)” value in the data set on P. aeruginosa ATCC 27853 [1] (elevated inoculum of EtBr assay (approximately 1000-fold greater)) turned out to be 12.5 µg/mL. Besides, the “EtBr efflux blockade (fluorescence)” value in the data set on P. aeruginosa ATCC 27853 [1] (increasing TXA11114 concentration) is recorded as “fluorescence intensity increased proportionally”. Besides, the Intracellular levofloxacin accumulation result in the data set on P. aeruginosa DA7232 was “marked increase in intracellular levofloxacin accumulation”. In addition, the “Reduction in time-kill with levofloxacin” value in the data set with P. aeruginosa AR-0232 is no less than 3 log10; in the data set on P. aeruginosa ATCC 27853 [2], “more modest but reproducible reductions”. Also, the half-life is greater than 2 h in the data set “Plasma stability” (across four species (human, dog, rat, and mouse), read-out: Plasma stability half-life); greater than 2 h in “Plasma stability” (human, read-out: Plasma stability t1/2). For the same compound, in the data set “Microsomal stability”, the half-life at 1 µM is greater than 1 h. Besides, the IC50 on CYP2D6 was greater than 100 µM; at CYP3A4 it was 63 µM. For the same compound, the IC50 at 24 h in the data set “in vitro [3]” and in the data set “in vitro [4]” was greater than 20 µM throughout. Besides, the “Blood Urea Nitrogen” value in [5] amounted to 15.3 mg/dL. In [5], this compound displayed a Creatinine of 0.22 mg/dL.

These data come from paper PMC13114161 (Antibiotics, 2026).
